Assay [1] has as its system human normal liver (L02) cells. The assay is described as follows: MTT assay on normal cell line L02. It counts as cell-based. Particulars: 48 h, MTT; for inhibition at 100 µM / IC50: Homo sapiens, L02; for inhibition at 100 µM / % Growth Inhibition at 100 μM L02: normal cells; for inhibition at 100 µM: read-out: % Growth Inhibition at 100 μM L02; for IC50: normal cell line. On the technique in general: Formazan colour is commonly taken as a measure of viable cells.

For another assay, the system named is MCF-7. Nature of the assay: MTT antiproliferative assay, MCF-7. Particulars: for inhibition at 100 µM / IC50: Homo sapiens, MCF7; for inhibition at 100 µM / % Growth Inhibition at 100 μM MCF-7 / IC50: 48 h, MTT; for inhibition at 100 µM: read-out: % Growth Inhibition at 100 μM MCF-7. The format is cell-based, human. As to the method:
(§1) The antiproliferative activity of the title compounds against the panel of six different human cancer cell lines, viz. lung (A549), cervix (HeLa), liver (HepG-2), liver (BEL7402), colorectal (HCT116), and breast (MCF-7) cell lines, was evaluated using a standard MTT-based colorimetric assay. All cell lines were obtained from the Key Laboratory of Natural Resources and Functional Molecules of the Changbai Mountain (Yanbian University) and maintained in Dulbecco’s modified Eagle’s medium (DMEM) and RPMI Media 1640 (RPMI1640), supplemented with 10% foetal bovine serum (FBS) at 37 °C in a humidified atmosphere containing 5% CO2.
(§2) Cells were plated in 96-well plates at appropriate densities to ensure exponential growth throughout the experimental period (9 × 10^3 cells per well), and then allowed to adhere for 24 h. Cells were then treated for 48 h with each compound. After 48 h of incubation, 10 μL of MTT solution were added to each well to a final concentration of 2 mg·mL^−1. Plates were then incubated for a further 4 h. After incubation, the MTT solution was removed and 150 μL of DMSO were added to each well for coloration. The plates were shaken vigorously for 10 min at room temperature to ensure complete solubilisation. The optometric density (OD) was read on a microplate reader (EL × 800, BioTek, Highland Park, Winooski, VT, USA) at 492 nm, and the data were subsequently analysed. The percentage of cell growth inhibition was calculated from the following equation:Inhibitory rate (%) = [1 − (ODtreated − ODblank)/(ODcontrol − ODblank)] × 100.
(§3) To obtain the antiproliferative activity of compounds 2a–2w, the compounds were selected in the same way with four serial concentrations (1, 10, 50 and 100 μM) of those compounds. The optometric density (OD) reading was then used to calculate the IC50.

Another assay has as its system HepG-2. Nature of the assay: MTT antiproliferative assay, HepG-2. Conditions: for inhibition at 100 µM / IC50: Homo sapiens, HepG2; for inhibition at 100 µM / % Growth Inhibition at 100 μM HepG-2 / IC50: 48 h, MTT; for inhibition at 100 µM: read-out: % Growth Inhibition at 100 μM HepG-2; for Selectivity Index HepG-2: IC50 on normal cells (L02)/IC50 on tumour cells. The format is cell-based, human. As to the method:
as §1, §2, §3

Another assay deals with A549. The assay is described as follows: MTT antiproliferative assay, A549. The format is cell-based, human. Conditions: for inhibition at 100 µM / IC50: Homo sapiens, A549; for inhibition at 100 µM / % Growth Inhibition at 100 μM A549 / IC50: 48 h, MTT; for inhibition at 100 µM: read-out: % Growth Inhibition at 100 μM A549; for Selectivity Index A549: IC50 on normal cells (L02)/IC50 on tumour cells. Here is the method: as §1, §2, §3

The test system of another assay is BEL7402. Nature of the assay: MTT antiproliferative assay, BEL7402. The format is cell-based, human. Conditions: for inhibition at 100 µM / IC50: Homo sapiens, Bel-7402; for inhibition at 100 µM / % Growth Inhibition at 100 μM BEL7402 / IC50: 48 h, MTT; for inhibition at 100 µM: read-out: % Growth Inhibition at 100 μM BEL7402; for Selectivity Index BEL7402: IC50 on normal cells (L02)/IC50 on tumour cells. Here is the method: as §1, §2, §3

In a further assay the test system is HCT116. The assay is described as follows: MTT antiproliferative assay, HCT116. The format is cell-based, human. Conditions: for inhibition at 100 µM / IC50: Homo sapiens, HCT-116; for inhibition at 100 µM / % Growth Inhibition at 100 μM HCT116 / IC50: 48 h, MTT; for inhibition at 100 µM: read-out: % Growth Inhibition at 100 μM HCT116; for Selectivity Index HCT116: IC50 on normal cells (L02)/IC50 on tumour cells. Here is the method:
as §1, §2, §3

In the next assay the test system is Hela. Nature of the assay: MTT antiproliferative assay, Hela. It counts as cell-based, human. Particulars: for inhibition at 100 µM / IC50: Homo sapiens; for inhibition at 100 µM / % Growth Inhibition at 100 μM Hela / IC50: 48 h, MTT; for inhibition at 100 µM: read-out: % Growth Inhibition at 100 μM Hela; for IC50: HeLa; for Selectivity Index Hela: IC50 on normal cells (L02)/IC50 on tumour cells. Here is the method: as §1, §2, §3

One may read the inhibition as how much of the control response was suppressed. Broadly, the IC50 is the concentration needed to halve the response being measured.

Turning to `CC12CCC3C(CC=C4CC(O)CCC43C)C1C/C(=C\c1cn(-c3ccccc3)nn1)C2=O` (stereo not shown) [Compound 2a, (E)-3-hydroxy-10,13-dimethyl-16-((1-phenyl-1H-1,2,3-triazol-4-yl)methylene)-1,3,4,7,8,9,10,11,12,13,15,16-dodecahydro-2H-cyclopenta[a]phenanthren-17(14H)-one], the inhibition at 100 µM was 22.3% in assay [1]; below 5% with MCF-7; 10.2% in the assay with HepG-2; 30.3% in the assay with A549; 12.9% in the assay on BEL7402; 11.1% with HCT116. Further, the inhibition at 100 µM with Hela is below 5%.

For the molecule `CC12CCC3C(CC=C4CC(O)CCC43C)C1C/C(=C\c1cn(-c3ccccc3F)nn1)C2=O` (stereo not shown) [Compound 2b, (E)-16-((1-(2-fluorophenyl)-1H-1,2,3-triazol-4-yl)methylene)-3-hydroxy-10,13-dimethyl-1,3,4,7,8,9,10,11,12,13,15,16-dodecahydro-2H-cyclopenta[a]phenan-thren-17(14H)-one], the “% Growth Inhibition at 100 μM L02” value in assay [1] is on record as “NA (NA: antiproliferative activity <5%)”. In addition, the “% Growth Inhibition at 100 μM MCF-7” value with MCF-7 is “NA (NA: antiproliferative activity <5%)”. The “% Growth Inhibition at 100 μM HepG-2” value in the assay on HepG-2 is reported as “NA (NA: antiproliferative activity <5%)”. Besides, in the assay on A549, the “% Growth Inhibition at 100 μM A549” value is listed as “NA (NA: antiproliferative activity <5%)”. In addition, the “% Growth Inhibition at 100 μM BEL7402” value in the assay with BEL7402 is given as “NA (NA: antiproliferative activity <5%)”. Moreover, the “% Growth Inhibition at 100 μM HCT116” value in the assay on HCT116 is listed as “NA (NA: antiproliferative activity <5%)”. In the assay on Hela, the “% Growth Inhibition at 100 μM Hela” value is recorded as “NA (NA: antiproliferative activity <5%)”.

Turning to `CC12CCC3C(CC=C4CC(O)CCC43C)C1C/C(=C\c1cn(-c3cccc(F)c3)nn1)C2=O` (stereo not shown) [Compound 2c, (E)-16-((1-(3-fluorophenyl)-1H-1,2,3-triazol-4-yl)methylene)-3-hydroxy-10,13-dimethyl-1,3,4,7,8,9,10,11,12,13,15,16-dodecahydro-2H-cyclopenta[a]phenanthren-17(14H)-one], in assay [1], the inhibition at 100 µM is 79.3% and the concentration for half-maximal inhibition (IC50) was 83.4 µM. For the same molecule, in the assay on MCF-7, the inhibition at 100 µM is 31.2% and the IC50 is above 100 µM. Also, in the assay with HepG-2, the inhibition at 100 µM stood at 78.8%, the IC50 came out at 11.1 µM and the “Selectivity Index HepG-2” value amounted to 7.53. Besides, in the assay on A549, the inhibition at 100 µM came to 60.5%, the IC50 was 51.6 µM and the “Selectivity Index A549” value is 1.61. Moreover, in the assay with BEL7402, the inhibition at 100 µM was 66.7%; the midpoint of inhibition, the IC50, lay at 68.9 µM; the “Selectivity Index BEL7402” value amounted to 1.21. In addition, in the assay with HCT116, the inhibition at 100 µM was found to be 78.3%, 26.3 µM corresponded to half-maximal inhibition (IC50) and the “Selectivity Index HCT116” value amounted to 3.17. Also, in the assay with Hela, inhibition was half-maximal at 83.5 µM (IC50), the inhibition at 100 µM worked out at 55.2% and the “Selectivity Index Hela” value is 0.99.

As to `CC12CCC3C(CC=C4CC(O)CCC43C)C1C/C(=C\c1cn(-c3ccc(F)cc3)nn1)C2=O` (stereo not shown) [Compound 2d, (E)-16-((1-(4-fluorophenyl)-1H-1,2,3-triazol-4-yl)methylene)-3-hydroxy-10,13-dimethyl-1,3,4,7,8,9,10,11,12,13,15,16-dodecahydro-2H-cyclopenta[a]phenanthren-17(14H)-one], in assay [1], the inhibition at 100 µM was determined as 80.3% and half-maximal inhibition (IC50) required 27.8 µM. Moreover, in the assay with MCF-7, the inhibition at 100 µM amounted to 83% and the IC50 stood at 17.8 µM. In addition, the “Selectivity Index MCF-7” value with MCF-7 (IC50 on normal cells (L02)/IC50 on tumour cells) is listed as 1.56. Moreover, in the assay on HepG-2, the inhibition at 100 µM amounted to 65.6%, the IC50 is 36.2 µM and the “Selectivity Index HepG-2” value was determined as 0.77. In addition, in the assay on A549, the inhibition at 100 µM amounted to 68.8%, half-maximal inhibition (IC50) required 15.8 µM and the “Selectivity Index A549” value is 1.76. Also, in the assay on BEL7402, the inhibition at 100 µM is 60.4%, inhibition was half-maximal at 40.4 µM (IC50) and the “Selectivity Index BEL7402” value came out at 0.69. Also, in the assay on HCT116, the inhibition at 100 µM came to 84.9%, the half-maximal inhibitory concentration (IC50) was found to be 33.2 µM and the “Selectivity Index HCT116” value was determined as 0.83. In the assay with Hela, the IC50 is 13.2 µM, the inhibition at 100 µM came to 78.9% and the “Selectivity Index Hela” value amounted to 2.10.

Turning to `CC12CCC3C(CC=C4CC(O)CCC43C)C1C/C(=C\c1cn(-c3ccccc3Cl)nn1)C2=O` (stereo not shown) [Compound 2e, (E)-16-((1-(2-chlorophenyl)-1H-1,2,3-triazol-4-yl)methylene)-3-hydroxy-10,13-di-methyl-1,3,4,7,8,9,10,11,12,13,15,16-dodecahydro-2H-cyclopenta[a]phenan-thren-17(14H)-one], in assay [1], the “% Growth Inhibition at 100 μM L02” value came to 12.4%. The “% Growth Inhibition at 100 μM MCF-7” value in the assay with MCF-7 amounted to 37.3%. Further, in the assay on HepG-2, the “% Growth Inhibition at 100 μM HepG-2” value is listed as “NA (NA: antiproliferative activity <5%)”. For the same molecule, in the assay with A549, the “% Growth Inhibition at 100 μM A549” value was “NA (NA: antiproliferative activity <5%)”. Besides, the “% Growth Inhibition at 100 μM BEL7402” value with BEL7402 is 10.5%. Besides, the “% Growth Inhibition at 100 μM HCT116” value in the assay with HCT116 amounted to 23.0%. Besides, in the assay with Hela, the “% Growth Inhibition at 100 μM Hela” value was 32.8%.

With `CC12CCC3C(CC=C4CC(O)CCC43C)C1C/C(=C\c1cn(-c3cccc(Cl)c3)nn1)C2=O` (stereo not shown) [Compound 2f, (E)-16-((1-(3-chlorophenyl)-1H-1,2,3-triazol-4-yl)methylene)-3-hydroxy-10,13-dimethyl-1,3,4,7,8,9,10,11,12,13,15,16-dodecahydro-2H-cyclopenta[a]phenanthren-17(14H)-one], the inhibition at 100 µM in assay [1] was 60.2%; in the assay on MCF-7 it was 41%; with HepG-2 it was 51.7%; with A549 it was 11.9%; with BEL7402 it was 36.5%; with HCT116, 41.9%. Also, the inhibition at 100 µM in the assay with Hela worked out at 9.2%.

Take `CC12CCC3C(CC=C4CC(O)CCC43C)C1C/C(=C\c1cn(-c3ccc(Cl)cc3)nn1)C2=O` (stereo not shown) [Compound 2g, (E)-16-((1-(4-chlorophenyl)-1H-1,2,3-triazol-4-yl)methylene)-3-hydroxy-10,13-dimethyl-1,3,4,7,8,9,10,11,12,13,15,16-dodecahydro-2H-cyclopenta[a]phenanthren-17(14H)-one]: the inhibition at 100 µM in assay [1] was 40.9%; with MCF-7, 39.9%; with HepG-2 it was 32.5%; in the assay with A549 it was 69.8%; with BEL7402, 66.9%; in the assay on HCT116 it was 78.7%. Moreover, the inhibition at 100 µM in the assay with Hela worked out at 62.8%. Also, the IC50 in assay [1] was above 100 µM; with MCF-7 it was above 100 µM; with HepG-2 it was above 100 µM; in the assay with A549, 37.4 µM; in the assay with BEL7402, 58.2 µM; in the assay with HCT116, 23.4 µM. The half-inhibitory concentration (IC50) in the assay on Hela came out at 57.3 µM.

For the molecule `O=c1[nH]cc(F)c(=O)[nH]1` [Compound 5-FU, 5-fluorouracil, reference compound], the IC50 in the assay on MCF-7 is 28.1 µM; in the assay on HepG-2, 10.6 µM; with BEL7402 it was 21.3 µM; in the assay on HCT116, 24.8 µM.
